According to ChEMBL document CHEMBL1201862, “PubChem BioAssay data set” (2004):
The source made the active and inactive calls.

Key:
[1] = cells; type: functional
[2] = HEK-293T cell viability reduction – luminescence, B-cell screen hits, cytotoxicity control for BCR NF-kB inhibitor project, dose response (AID 489021); type: functional, cell-based;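 note: HEK-293T cells carrying an NF-kB luciferase reporter; cells exposed to compound for about 14 hours before viability readout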
[3] = molecular target: T1, Aminopeptidase N (Plasmodium falciparum FcB1/Columbia, UniProt O96935); test: malaria alanyl aminopeptidase activity blockers – biochemical, fluorogenic H-Leu-NHMec substrate, 1536-well (AID 1445); design: species or system Plasmodium falciparum 3D7, 3D7
T1 sequence (O96935 whole entry): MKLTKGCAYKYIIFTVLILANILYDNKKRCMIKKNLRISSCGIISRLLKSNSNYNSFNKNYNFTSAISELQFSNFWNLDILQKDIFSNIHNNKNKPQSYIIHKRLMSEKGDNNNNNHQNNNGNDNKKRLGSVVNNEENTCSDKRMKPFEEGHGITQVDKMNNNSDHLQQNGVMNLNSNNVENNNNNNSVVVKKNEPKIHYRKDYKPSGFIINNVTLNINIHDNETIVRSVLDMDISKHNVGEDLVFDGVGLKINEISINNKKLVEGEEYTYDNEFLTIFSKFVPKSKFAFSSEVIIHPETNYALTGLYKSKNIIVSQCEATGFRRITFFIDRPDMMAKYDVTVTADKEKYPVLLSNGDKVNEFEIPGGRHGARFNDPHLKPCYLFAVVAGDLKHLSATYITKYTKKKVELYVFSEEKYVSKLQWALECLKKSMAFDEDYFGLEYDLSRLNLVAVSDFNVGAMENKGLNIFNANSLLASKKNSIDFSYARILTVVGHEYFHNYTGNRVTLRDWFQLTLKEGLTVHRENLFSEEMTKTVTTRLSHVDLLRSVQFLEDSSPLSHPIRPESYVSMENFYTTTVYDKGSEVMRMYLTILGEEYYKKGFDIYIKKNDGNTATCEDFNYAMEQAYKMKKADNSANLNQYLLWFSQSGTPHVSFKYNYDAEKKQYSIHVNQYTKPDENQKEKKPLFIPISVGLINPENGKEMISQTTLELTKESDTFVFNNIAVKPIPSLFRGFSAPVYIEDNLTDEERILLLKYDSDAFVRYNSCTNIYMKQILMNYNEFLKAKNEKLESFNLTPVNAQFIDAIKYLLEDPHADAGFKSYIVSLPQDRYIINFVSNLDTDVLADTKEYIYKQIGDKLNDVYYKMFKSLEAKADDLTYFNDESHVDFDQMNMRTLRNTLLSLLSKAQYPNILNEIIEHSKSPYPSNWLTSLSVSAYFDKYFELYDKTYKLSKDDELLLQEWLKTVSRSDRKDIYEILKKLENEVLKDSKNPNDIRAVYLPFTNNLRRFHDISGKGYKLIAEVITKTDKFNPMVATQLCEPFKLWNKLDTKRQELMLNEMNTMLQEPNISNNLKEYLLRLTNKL

[4] = molecular target: Induced myeloid leukemia cell differentiation protein Mcl-1 (Homo sapiens, UniProt Q07820); type: functional
Chain of Induced myeloid leukemia cell differentiation protein Mcl-1 (Q07820 whole entry, the tested form may be a part): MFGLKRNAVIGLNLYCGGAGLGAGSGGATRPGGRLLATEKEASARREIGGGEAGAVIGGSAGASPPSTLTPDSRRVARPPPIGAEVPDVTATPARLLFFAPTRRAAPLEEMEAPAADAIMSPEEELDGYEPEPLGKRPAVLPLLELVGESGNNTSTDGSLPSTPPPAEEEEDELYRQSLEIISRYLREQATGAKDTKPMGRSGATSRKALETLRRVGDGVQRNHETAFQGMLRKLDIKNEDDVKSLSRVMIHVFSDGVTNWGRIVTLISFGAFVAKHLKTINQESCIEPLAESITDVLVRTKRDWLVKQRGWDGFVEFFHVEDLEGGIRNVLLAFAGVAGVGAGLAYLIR

[5] = molecular target: T2, Carboxy-terminal domain RNA polymerase II polypeptide A small phosphatase 1 (Homo sapiens, UniProt Q9GZU7); test: CTDSP1 inhibitors, concentration-response, biochemical, absorbance readout, ultra-high-throughput screen actives (AID 540297); type: functional
T2 sequence (Q9GZU7 whole entry): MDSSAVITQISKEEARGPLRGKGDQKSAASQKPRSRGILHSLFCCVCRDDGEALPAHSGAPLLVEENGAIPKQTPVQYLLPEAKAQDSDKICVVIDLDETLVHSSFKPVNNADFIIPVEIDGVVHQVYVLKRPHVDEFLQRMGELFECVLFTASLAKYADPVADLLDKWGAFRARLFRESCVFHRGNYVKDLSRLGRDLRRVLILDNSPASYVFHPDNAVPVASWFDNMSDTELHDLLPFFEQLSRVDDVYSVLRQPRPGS

[6] = system: BJ; test: BJ-TERT fibroblast viability loss – cell-based, RAS-independent, luminescence, dose response (AID 1933); type: functional; conditions: Homo sapiens
[7] = system: BJ; test: cells; type: functional, cell-based; conditions: Homo sapiens
[8] = system: BJ; test: BJ-TERT-LT-ST fibroblast viability loss – cell-based, RAS-independent, luminescence, dose response (AID 1935); type: functional; conditions: Homo sapiens;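 note: BJ fibroblasts immortalized with TERT plus LT and ST oncogenes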
[9] = DRD fibroblast viability loss – cell-based, non-viral oncogenic, luminescence, dose response (AID 1934); type: functional; conditions: Homo sapiens
[10] = molecular target: Glyceraldehyde-3-phosphate dehydrogenase (Homo sapiens, UniProt P04406)
Chain of Glyceraldehyde-3-phosphate dehydrogenase (P04406 whole entry): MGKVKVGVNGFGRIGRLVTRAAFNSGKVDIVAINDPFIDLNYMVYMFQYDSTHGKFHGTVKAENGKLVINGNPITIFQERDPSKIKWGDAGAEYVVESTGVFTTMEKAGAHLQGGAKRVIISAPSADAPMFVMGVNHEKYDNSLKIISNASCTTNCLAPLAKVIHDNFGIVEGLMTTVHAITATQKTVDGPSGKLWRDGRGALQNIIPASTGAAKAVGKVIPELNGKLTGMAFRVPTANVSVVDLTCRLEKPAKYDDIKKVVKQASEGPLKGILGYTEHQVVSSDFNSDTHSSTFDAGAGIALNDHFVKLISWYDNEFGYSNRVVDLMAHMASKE

[11] = Luminescence Cell-Based Dose Confirmation HTS to Identify Activators of 5'UTR Stem-Loop Driven Alpha-Synuclein mRNA Translation in H4 Neuroglioblastoma Cells. [Related pubchem assays: 1829 (Project Summary), 1814 (Primary HTS)]; type: functional
[12] = Luminescence Cell-Based Dose Response HTS to Identify Activators of Luciferase Translation or Activity in H4 […] Cells. [Related pubchem assays: 1829 (Project Summary), 1814 (Primary HTS)]; type: functional
[13] = system: H4; test: Luminescence Cell-Based Dose Response HTS to Identify Activators of 5'UTR Stem-Loop Driven Prion Protein mRNA Translation in H4 Neuroglioblastoma Cells. [Related pubchem assays: 1829 (Project Summary), 1814 (Primary HTS)]; type: functional; conditions: Homo sapiens
[14] = Trypanosoma cruzi growth suppression in host cells – NIH3T3 host cells, beta-gal luminescence, confirmation (AID 2044); type: functional, cell-based;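 note: intracellular parasites grown in NIH/3T3 mouse fibroblasts as host cells; luminescent beta-galactosidase reporter signal from transgenic T. cruzi replicating inside host cells; inhibitors lower the luminescence signal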
[15] = NIH3T3 cell viability loss – ATP luminescence, mouse fibroblasts, counter-screen, dose response (AID 2010); type: functional, cell-based;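 note: cells exposed to compound for about 90 hours before reading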
[16] = molecular target: T3, Replicative DNA helicase DnaB (Mycobacterium tuberculosis, UniProt P9WMR3); test: DnaB intein splicing inhibitors, dose response, biochemical, cell-free fluorescence (AID 449749); type: functional
T3 sequence (P9WMR3 whole entry): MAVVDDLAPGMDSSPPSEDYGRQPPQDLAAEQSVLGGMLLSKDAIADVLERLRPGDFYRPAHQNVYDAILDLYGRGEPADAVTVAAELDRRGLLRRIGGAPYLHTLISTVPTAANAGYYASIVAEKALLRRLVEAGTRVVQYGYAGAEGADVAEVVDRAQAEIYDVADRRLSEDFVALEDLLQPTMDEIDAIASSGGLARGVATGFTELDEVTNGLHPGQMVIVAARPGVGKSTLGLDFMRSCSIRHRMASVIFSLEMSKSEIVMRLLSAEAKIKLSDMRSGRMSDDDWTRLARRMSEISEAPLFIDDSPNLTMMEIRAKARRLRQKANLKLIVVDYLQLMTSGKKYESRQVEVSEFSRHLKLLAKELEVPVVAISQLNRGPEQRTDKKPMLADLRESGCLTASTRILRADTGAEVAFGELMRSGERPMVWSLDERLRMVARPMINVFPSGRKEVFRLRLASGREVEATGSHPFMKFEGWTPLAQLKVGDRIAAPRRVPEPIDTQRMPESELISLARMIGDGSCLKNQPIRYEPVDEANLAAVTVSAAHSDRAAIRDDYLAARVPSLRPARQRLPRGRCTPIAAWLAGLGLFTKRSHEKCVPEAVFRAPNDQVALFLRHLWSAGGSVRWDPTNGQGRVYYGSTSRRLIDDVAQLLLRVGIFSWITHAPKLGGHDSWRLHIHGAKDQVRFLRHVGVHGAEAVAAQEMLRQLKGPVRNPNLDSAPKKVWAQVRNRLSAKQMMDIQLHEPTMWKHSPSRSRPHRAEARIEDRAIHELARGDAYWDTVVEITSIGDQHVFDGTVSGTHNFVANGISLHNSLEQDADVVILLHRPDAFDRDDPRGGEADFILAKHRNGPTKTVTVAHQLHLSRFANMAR

[17] = molecular target: T4, Protein RecA (Mycobacterium tuberculosis, UniProt P9WHJ3); test: Fluorescence Cell-Free Homogeneous Dose Retest to Identify Inhibitors of RecA-Intein Splicing Activity. [Related pubchem assays (depositor defined):AID2097, AID2223, AID489010, AID492950]; type: functional
T4 sequence (P9WHJ3 whole entry): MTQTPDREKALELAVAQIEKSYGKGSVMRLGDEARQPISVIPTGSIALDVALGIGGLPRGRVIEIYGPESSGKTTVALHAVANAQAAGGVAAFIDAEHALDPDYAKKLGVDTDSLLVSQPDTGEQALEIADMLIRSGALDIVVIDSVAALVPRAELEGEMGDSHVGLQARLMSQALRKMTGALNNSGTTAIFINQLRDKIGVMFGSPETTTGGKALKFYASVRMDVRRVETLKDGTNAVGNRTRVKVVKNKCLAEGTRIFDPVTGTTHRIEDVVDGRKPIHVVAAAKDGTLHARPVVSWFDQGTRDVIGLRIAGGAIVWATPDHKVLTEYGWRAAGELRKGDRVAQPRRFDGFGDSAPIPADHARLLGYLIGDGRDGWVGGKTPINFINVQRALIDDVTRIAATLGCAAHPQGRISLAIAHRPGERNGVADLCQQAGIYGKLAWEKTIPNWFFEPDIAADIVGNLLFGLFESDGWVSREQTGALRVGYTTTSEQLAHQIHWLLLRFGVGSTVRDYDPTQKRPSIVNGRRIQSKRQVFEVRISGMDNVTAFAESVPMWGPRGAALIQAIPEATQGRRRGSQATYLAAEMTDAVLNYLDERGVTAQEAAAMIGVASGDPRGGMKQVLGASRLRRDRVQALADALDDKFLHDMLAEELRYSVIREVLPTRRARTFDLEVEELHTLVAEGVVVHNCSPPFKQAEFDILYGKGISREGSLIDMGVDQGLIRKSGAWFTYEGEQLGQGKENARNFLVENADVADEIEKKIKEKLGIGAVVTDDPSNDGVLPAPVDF

[18] = reduced cellular PGC1a acetyl-lysine signal – cell-based, cherry-picked samples, dose response (AID 720514); type: functional;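 note: potency may reflect raised or lowered acetylation signal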
[19] = A549 cell cytotoxicity, dose response, cytotoxicity control, plate reader, cherry-pick, antagonist series (AID 743412); type: functional, cell-based
[20] = toxicity toward HepG2 liver cells – cell-based, plate reader, cherry-pick, antagonist series, cytotoxicity control, dose response (AID 743416); type: functional
[21] = blockers of bursicon-stimulated LGR2 cAMP reporter – cell-based, HEK293, CRE-luciferase reporter, cherry pick, set 2, dose response (AID 743343); type: functional;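 note: transfected cells were stimulated with diluted bursicon conditioned medium after compound addition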
[22] = blockade of melanocortin 4 receptor signaling – cell-based, plate reader, cherry pick, counter-screen for LGR2 antagonist project, dose response (AID 743444); type: functional;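 note: transfected HEK 293 cells stimulated with alpha-MSH peptide; potency of inhibitors of the alpha-MSH evoked signal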
[23] = viability loss in HEK293 cells – cell-based, plate reader, cherry-picked samples, cytotoxicity control, dose response (AID 743446); type: functional
[24] = molecular target: T5, Leucine aminopeptidase (Plasmodium falciparum 3D7, UniProt Q8IL11); test: P. falciparum M17LAP inhibitors, primary screen, biochemical, fluorogenic H-Leu-NHMec substrate, 1536-well (AID 1619); type: functional
T5 sequence (Q8IL11 whole entry): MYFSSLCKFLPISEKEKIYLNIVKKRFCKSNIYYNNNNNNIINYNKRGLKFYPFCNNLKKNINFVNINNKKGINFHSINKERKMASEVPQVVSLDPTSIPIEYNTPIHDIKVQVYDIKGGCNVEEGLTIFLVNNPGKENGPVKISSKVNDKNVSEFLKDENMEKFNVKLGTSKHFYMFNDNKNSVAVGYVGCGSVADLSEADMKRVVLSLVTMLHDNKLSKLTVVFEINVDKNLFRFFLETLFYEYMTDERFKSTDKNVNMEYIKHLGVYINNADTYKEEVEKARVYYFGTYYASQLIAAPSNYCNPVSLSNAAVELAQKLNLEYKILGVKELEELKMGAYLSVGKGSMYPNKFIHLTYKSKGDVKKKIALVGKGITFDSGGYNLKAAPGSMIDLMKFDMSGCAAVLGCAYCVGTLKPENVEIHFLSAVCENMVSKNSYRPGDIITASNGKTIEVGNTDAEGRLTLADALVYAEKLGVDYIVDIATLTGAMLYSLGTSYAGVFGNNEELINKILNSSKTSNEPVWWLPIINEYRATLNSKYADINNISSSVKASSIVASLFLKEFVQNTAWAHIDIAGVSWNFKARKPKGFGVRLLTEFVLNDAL

O=C(COC(=O)c1cc(Br)ccc1O)Nc1ccc2c(c1)OCO2
IC50 [1]: 22.1 µM (active)

CCOc1ccc(-c2nnc(SCC(=O)Nc3cc(C)on3)o2)cc1
IC50 [2]: > 80 µM (inactive)

CS(=O)(=O)C1=NSC2=NC(=O)/C(=C\c3cccn3-c3ccc(Cl)cc3)C(=N)N21
IC50 [3]: 5.15 µM (active) | IC50 [4]: 4.98 µM (active) | IC50 [5]: 5.93 µM (active)

CCOC(=O)c1c(C)[nH]c(C)c1C(=O)COC(=O)c1ccc([N+](=O)[O-])s1
IC50 [1]: 8.59 µM (active)

COc1cc(OC)cc(C(=O)NNC(=O)C2CCCC2)c1
EC50 [6]: > 150 µM (not active) | EC50 [7]: > 150 µM (not active) | EC50 [8]: > 150 µM (not active) | EC50 [9]: > 150 µM (not active)

O=C1C(Cl)=C(N2CCN(CCO)CC2)C(=O)N1c1ccnc(Cl)c1
IC50 [10]: > 50 µM (inconclusive)

O=C(CCC1CCCCC1)Nc1nc[nH]n1
IC50 [10]: > 10 µM (inconclusive)

O=c1c(Cl)c(Cl)cnn1Cc1nnc(-c2ccc(Cl)cc2)o1
EC50 [11]: > 120 µM (not active) | EC50 [12]: > 120 µM (not active) | EC50 [13]: > 120 µM (not active) | EC50 [14]: 1.15 µM (active) | EC50 [15]: 2.02 µM (active) | AC50 [16]: 9.97 µM (active) | EC50 [17]: 2.95 µM (active) | AC50 [18]: 7.83 µM (active) | AC50 [19]: 7.33 µM (active) | AC50 [20]: 8.01 µM (active) | AC50 [21]: 25.3 µM (active) | AC50 [22]: 30.9 µM (active) | AC50 [23]: 8.16 µM (active)

Cc1cc(NC(=O)COc2ccccc2)ccc1Cl
IC50 [1]: > 50 µM (active)

Cc1c(CCC(=O)N2CCC(C(=O)O)CC2)c(=O)oc2cc3oc4c(c3cc12)CCCC4
IC50 [2]: > 80 µM (inactive)

CCOc1ccccc1Nc1nnc(SCC(=O)NC(Cc2c[nH]c3ccccc23)C(=O)O)s1 (configuration not stated)
IC50 [24]: 7.81 µM (active) | IC50 [3]: 67.4 µM (active)

CCN(CC)S(=O)(=O)c1ccc(N2CCOCC2)c(NC(=O)c2[nH]c(C)c(C(C)=O)c2C)c1
IC50 [2]: > 80 µM (inactive)

Cn1cc(C(=O)N/N=C/c2ccc3c(c2)OCO3)c2ccccc21
EC50 [11]: > 120 µM (not active) | EC50 [12]: 5.78 µM (active) | EC50 [6]: 124 µM (active) | EC50 [13]: 5.85 µM (active) | EC50 [7]: 44.9 µM (active) | EC50 [8]: > 150 µM (inconclusive) | EC50 [9]: 19.6 µM (active)
